In series [1] the test system is human EAAT1-3. Kind of series: [3H]-D-aspartate uptake assay, statements made for EAAT1-3 together. The series is classed as cell-based. Particulars: for inhibitory activity at EAAT1-3 (in words): HEK293 cells expressing human EAAT1-3, [3H]-D-aspartate uptake; for drop in inhibitory potency across the subtypes: relative to the lead, EAAT1-3. From the text:
(§1) In total, […] piperazine analogs 2.1-2.40 and 3.1-3.12 were characterized pharmacologically at stable HEK293 cells expressing human EAAT1-3 in a [^3H]-D-aspartate uptake assay, (Jensen & Bräuner-Osborne [2004]) and the results are summarized in Table 1 and Table 2. […] Usually, such findings would lead to the conclusion that the bicyclo-[2.2.1]-heptanyl group occupies a promiscuous hydrophobic pocket, which could be optimized for increased potency. However, upon increasing or decreasing the hydrophobic bulk and/or flexibility, a clear drop in potency was observed (analogs 2.1-2.17, Table 1). […] These findings could open up for the hypothesis that the pocket is indeed not hydrophobic but instead hydrophilic in nature. Upon binding of the hydrophobic alkane group, water molecules are forced out and ligand binding is entropically driven rather than enthalpically. Thus analogs 2.18-2.31, which comprise a hydrophobic group, could be potential inhibitors.
(§2) Analogs 2.22-2.31, 2.36-2.40, 3.3, 3.4, 3.6 and 3.12 were obtained as 5 mg portions pre-dissolved in DMSO from ChemBridge corporation and used directly in the [3H]-Asp-uptake assay.

The target in series [2] is T1, human EAAT3 (Homo sapiens, UniProt P43005).
T1 construct: expressed in transfected cells
T1 sequence (P43005 1-524): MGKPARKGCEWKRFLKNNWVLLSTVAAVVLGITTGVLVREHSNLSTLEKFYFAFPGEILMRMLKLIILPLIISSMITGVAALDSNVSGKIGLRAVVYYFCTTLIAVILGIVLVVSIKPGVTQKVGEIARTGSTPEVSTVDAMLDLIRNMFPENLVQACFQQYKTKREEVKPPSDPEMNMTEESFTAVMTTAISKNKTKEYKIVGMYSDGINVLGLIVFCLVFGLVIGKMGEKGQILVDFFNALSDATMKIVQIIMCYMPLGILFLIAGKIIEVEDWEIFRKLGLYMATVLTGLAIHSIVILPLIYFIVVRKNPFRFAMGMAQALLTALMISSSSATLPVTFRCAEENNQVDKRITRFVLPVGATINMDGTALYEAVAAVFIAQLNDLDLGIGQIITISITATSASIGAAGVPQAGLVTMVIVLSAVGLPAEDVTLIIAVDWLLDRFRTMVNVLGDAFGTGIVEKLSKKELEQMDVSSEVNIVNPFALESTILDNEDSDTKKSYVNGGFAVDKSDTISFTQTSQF
Kind of series: [3H]-D-aspartate uptake assay at HEK293 cells stably expressing human EAAT3. The series is classed as cell-based.
Text: as §1, §2

Series [3] deals with T2, human EAAT2 (Homo sapiens, UniProt P43004).
T2 construct: expressed in transfected cells
Kind of series: [3H]-D-aspartate uptake assay at HEK293 cells stably expressing human EAAT2. The series is classed as cell-based.
Text: as §1, §2

Series [4] addresses T3, human EAAT1 (Homo sapiens, UniProt P43003).
T3 construct: expressed in transfected cells
Kind of series: [3H]-D-aspartate uptake assay at HEK293 cells stably expressing human EAAT1. The format is cell-based.
Text: as §1, §2

The mark [5] stands for this setting: [3H]-D-aspartate uptake, HEK293 cells stably expressing human EAAT3, analogs 1 and 2.1-2.40 (Table 1), read-out: EAAT3 IC50.
Where [6] appears, read: [3H]-D-aspartate uptake, HEK293 cells stably expressing human EAAT2, analogs 1 and 2.1-2.40 (Table 1), read-out: EAAT2 IC50.
Setting [7] is: [3H]-D-aspartate uptake, HEK293 cells stably expressing human EAAT1, analogs 1 and 2.1-2.40 (Table 1), read-out: EAAT1 IC50.
Setting [8] is: D-aspartate uptake, HEK293 cells stably expressing human EAAT3, analogs 3.1-3.12 (Table 2), read-out: EAAT3 IC50.
Where [9] appears, read: D-aspartate uptake, HEK293 cells stably expressing human EAAT2, analogs 3.1-3.12 (Table 2), read-out: EAAT2 IC50.
Setting [10] is: D-aspartate uptake, HEK293 cells stably expressing human EAAT1, analogs 3.1-3.12 (Table 2), read-out: EAAT1 IC50.

Like-named read-outs stand apart in the source and are kept apart here. Where only a bound is given, the exact number is not on record here.

T2 sequence (P43004 whole entry): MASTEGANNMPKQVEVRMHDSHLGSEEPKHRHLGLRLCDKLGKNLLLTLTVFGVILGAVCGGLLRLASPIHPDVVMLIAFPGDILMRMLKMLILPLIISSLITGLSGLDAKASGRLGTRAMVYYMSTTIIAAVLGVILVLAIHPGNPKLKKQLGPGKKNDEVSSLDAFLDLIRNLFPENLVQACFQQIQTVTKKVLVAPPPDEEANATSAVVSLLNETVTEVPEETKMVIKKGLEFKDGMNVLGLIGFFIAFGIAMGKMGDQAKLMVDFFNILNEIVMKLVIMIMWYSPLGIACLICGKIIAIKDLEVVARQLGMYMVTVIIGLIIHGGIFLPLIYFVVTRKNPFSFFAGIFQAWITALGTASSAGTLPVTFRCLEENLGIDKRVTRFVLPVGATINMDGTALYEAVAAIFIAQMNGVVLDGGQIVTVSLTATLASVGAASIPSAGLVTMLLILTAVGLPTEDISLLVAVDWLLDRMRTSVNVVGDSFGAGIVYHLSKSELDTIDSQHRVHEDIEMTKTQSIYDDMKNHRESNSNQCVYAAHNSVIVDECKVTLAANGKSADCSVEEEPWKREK
T3 sequence (P43003 whole entry): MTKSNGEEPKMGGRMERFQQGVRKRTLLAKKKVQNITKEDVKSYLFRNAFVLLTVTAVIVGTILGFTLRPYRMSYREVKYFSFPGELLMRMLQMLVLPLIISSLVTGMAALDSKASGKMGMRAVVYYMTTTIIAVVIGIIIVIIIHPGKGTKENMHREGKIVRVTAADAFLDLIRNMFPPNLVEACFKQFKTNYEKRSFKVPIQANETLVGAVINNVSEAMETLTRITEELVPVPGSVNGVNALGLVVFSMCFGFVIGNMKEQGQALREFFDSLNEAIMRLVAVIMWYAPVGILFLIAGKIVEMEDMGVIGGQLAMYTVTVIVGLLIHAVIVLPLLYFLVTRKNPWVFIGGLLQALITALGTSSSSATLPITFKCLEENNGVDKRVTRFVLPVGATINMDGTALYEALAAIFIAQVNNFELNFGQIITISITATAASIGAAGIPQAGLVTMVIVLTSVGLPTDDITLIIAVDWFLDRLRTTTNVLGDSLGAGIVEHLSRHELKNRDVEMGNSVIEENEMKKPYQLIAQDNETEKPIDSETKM

Broadly, the IC50 is the point on the concentration scale where inhibition reaches its midpoint. `O=C(OCc1ccccc1)N1CCN(c2cccc(C(F)(F)F)c2)CC1` [2.32, Benzyl 4-(3-(trifluoromethyl)phenyl)piperazine-1-carboxylate]: the “inhibitory activity at EAAT1-3 (in words)” value (shortened to “inhibitory activity”) in series [1] is reported as “neither the carbamate 2.32 nor the sulfonamide 2.33 analog displayed inhibitory activity”. In addition, the results for the IC50 in series [2] (setting [5]), in series [3] (setting [6]) and in series [4] (setting [7]) were above 300 µM, above 300 µM and above 1000 µM, respectively.
A word on the melting point: it is the temperature of the solid-liquid transition. Consider `O=C(C1CC2CCC1C2)N1CCN(c2ccc(C(F)(F)F)cc2)CC1` (racemic) [(±)-endo-exo-3.2, (±)-endo-exo-Bicyclo[2.2.1]heptan-2-yl(4-(4-(trifluoromethyl)phenyl)piperazin-1-yl)methanone], for which the melting point is 126 to 127 °C (dec.). Also, the “inhibitory activity” value in series [1] was “loss of inhibitory activity”. Besides, the IC50 in series [2] (setting [8]) was above 300 µM. The IC50 in series [3] (setting [9]) is above 300 µM. Further, the IC50 in series [4] (setting [10]) was above 300 µM.
Turning to `O=C(c1ccccc1)N1CCN(c2cccc(C(F)(F)F)c2)CC1` [2.11, Phenyl(4-(3-(trifluoromethyl)phenyl)piperazin-1-yl)methanone], the “drop in inhibitory potency across the subtypes” value in series [1] is recorded as 5-15 fold. The IC50 in series [2] (setting [5]) is above 100 µM; in series [3] (setting [6]), above 100 µM; in series [4] (setting [7]), around 150 µM.
For the compound `O=C(C1CCCCC1)N1CCN(c2cccc(C(F)(F)F)c2)CC1` [2.3, Cyclohexyl(4-(3-(trifluoromethyl)phenyl)piperazin-1-yl)methanone], the “drop in inhibitory potency across the subtypes” value in series [1] is on record as 5-15 fold. The IC50 in series [2] (setting [5]), in series [3] (setting [6]) and in series [4] (setting [7]) was around 100 µM in each case.
As to `O=S(=O)(c1ccccc1)N1CCN(c2cccc(C(F)(F)F)c2)CC1` [2.33, 1-(Phenylsulfonyl)-4-(3-(trifluoromethyl)phenyl)piperazine], the melting point is 109 to 111 °C (dec.). The “inhibitory activity” value in series [1] is “neither the carbamate 2.32 nor the sulfonamide 2.33 analog displayed inhibitory activity”. In addition, the IC50 in series [2] (setting [5]) is above 1000 µM. The IC50 in series [3] (setting [6]) was above 300 µM. Moreover, in series [4] (setting [7]), the IC50 was above 1000 µM.
For `O=C([C@@H]1C[C@@H]2CC[C@H]1C2)N1CCN(c2cccc(C(F)(F)F)c2)CC1` (racemic) [(±)-endo-1, (±)-endo-Bicyclo[2.2.1]heptan-2-yl(4-(3-(trifluoromethyl)phenyl)piperazin-1-yl)methanone], the “inhibitory activity” value in series [1] is listed as “inhibitory potency in the mid-micromolar range”. Moreover, the IC50 is 10 µM in series [2] (setting [5]), 32 µM in series [3] (setting [6]) and 14 µM in series [4] (setting [7]). For the same compound, the “EAAT3 pIC50 ± S.E.M.” value in series [2] (value in brackets, Table 1) is reported as 5.04 ± 0.13. For the same compound, the “EAAT2 pIC50 ± S.E.M.” value in series [3] (value in brackets, Table 1) was found to be 4.52 ± 0.12. In addition, the “EAAT1 pIC50 ± S.E.M.” value in series [4] (value in brackets, Table 1) was determined as 4.88 ± 0.09.
In turn, `O=C(N1CCN(c2cccc(C(F)(F)F)c2)CC1)C1(c2ccccc2)CCCC1` [2.14, 1-Phenylcyclopentyl-(4-(3-(trifluoromethyl)phenyl)piperazin-1-yl)methanone] registered a melting point of 77 to 79 °C. Moreover, in series [2], the IC50 is above 300 µM. Also, in series [3], the IC50 was above 300 µM. This compound gave an IC50 in series [4] above 300 µM.
Turning to `O=C(C1CC2CCC1C2)N1CCN(c2cccc(O)c2)CC1` (racemic) [(±)-endo-exo-3.8, (±)-endo-exo-Bicyclo[2.2.1]heptan-2-yl(4-(3-hydroxyphenyl)piperazin-1-yl)methanone], the melting point is 187 to 189 °C (dec.). Further, the IC50 in series [2] (setting [8]) was above 300 µM. In series [3] (setting [9]), the IC50 is above 300 µM. Besides, the IC50 in series [4] (setting [10]) was above 300 µM.
For `O=C(C1CC2CCC1C2)N1CCN(c2ccccc2C(F)(F)F)CC1` (racemic) [(±)-endo-exo-3.5, (±)-endo-exo-Bicyclo[2.2.1]heptan-2-yl(4-(2-(trifluoromethyl)phenyl)piperazin-1-yl)methanone], the “inhibitory activity” value in series [1] is listed as “loss of inhibitory activity”. Also, the IC50 in series [2] (setting [8]) is above 300 µM; in series [3] (setting [9]), above 300 µM; in series [4] (setting [10]), around 300 µM.
`O=C(c1ccc2c(c1)OCO2)N1CCN(c2cccc(C(F)(F)F)c2)CC1` [2.12, Benzo[d][1,3]dioxol-5-yl(4-(3-(trifluoromethyl)phenyl)piperazin-1-yl)methanone] had a melting point of 87 to 89 °C. Moreover, in series [2] (setting [5]), the IC50 is above 100 µM. The IC50 in series [3] (setting [6]) was above 100 µM. The IC50 in series [4] (setting [7]) is above 100 µM.
In the case of `O=C(C1CC2CCC1C2)N1CCN(c2ccccc2)CC1` (racemic) [(±)-endo-exo-3.1, Bicyclo[2.2.1]heptan-2-yl(4-phenylpiperazin-1-yl)methanone], in series [1], the “inhibitory activity” value is “loss of inhibitory activity”. The IC50 in series [2] (setting [8]), in series [3] (setting [9]) and in series [4] (setting [10]) was above 300 µM throughout.
